Source: ChEMBL document CHEMBL1240295, “Specificity and mechanism of action of some commonly used protein kinase inhibitors” (Biochem J, 2000)

Key:
[1] = species: Bos taurus; conditions: at 10 µM
Description: Inhibition of bovine heart PKA at 10 uM

[2] = target: T1, Mitogen-activated protein kinase 13 (Homo sapiens) (UniProt O15264); conditions: at 10 µM
T1 sequence (whole entry): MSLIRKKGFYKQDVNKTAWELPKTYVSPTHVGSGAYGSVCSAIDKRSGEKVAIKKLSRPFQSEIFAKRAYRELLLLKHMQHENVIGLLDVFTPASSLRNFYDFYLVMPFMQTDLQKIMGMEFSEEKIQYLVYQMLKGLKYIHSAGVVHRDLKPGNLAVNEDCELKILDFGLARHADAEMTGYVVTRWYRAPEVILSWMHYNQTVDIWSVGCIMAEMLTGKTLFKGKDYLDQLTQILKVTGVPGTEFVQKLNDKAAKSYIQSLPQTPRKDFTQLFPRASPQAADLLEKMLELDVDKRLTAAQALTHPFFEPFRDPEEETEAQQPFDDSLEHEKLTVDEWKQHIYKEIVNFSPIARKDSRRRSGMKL
Description: Inhibition of Gst-tagged human SAPK4/p38delta expressed in Escherichia coli at 10 uM

[3] = target: RAC-alpha serine/threonine-protein kinase (Homo sapiens) (UniProt P31749); conditions: Sf9, at 10 µM
Sequence of RAC-alpha serine/threonine-protein kinase (Homo sapiens) (P31749 whole entry): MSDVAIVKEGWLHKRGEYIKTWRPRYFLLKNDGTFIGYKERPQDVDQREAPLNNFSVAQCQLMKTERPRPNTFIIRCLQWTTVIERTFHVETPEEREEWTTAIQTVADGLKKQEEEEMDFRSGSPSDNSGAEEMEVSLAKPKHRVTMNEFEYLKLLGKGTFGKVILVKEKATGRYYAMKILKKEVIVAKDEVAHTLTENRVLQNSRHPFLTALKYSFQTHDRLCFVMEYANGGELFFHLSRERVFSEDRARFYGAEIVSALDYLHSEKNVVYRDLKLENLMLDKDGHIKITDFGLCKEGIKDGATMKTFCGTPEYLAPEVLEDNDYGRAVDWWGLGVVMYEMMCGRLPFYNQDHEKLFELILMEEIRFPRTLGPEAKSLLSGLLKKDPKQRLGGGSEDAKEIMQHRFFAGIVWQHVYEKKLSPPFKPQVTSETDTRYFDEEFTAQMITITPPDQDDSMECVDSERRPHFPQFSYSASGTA
Description: Inhibition of human PKBalpha expressed in SF9 cells at 10 uM

[4] = target: T2, Mitogen-activated protein kinase 12 (Homo sapiens) (UniProt P53778); conditions: at 10 µM
T2 sequence (whole entry): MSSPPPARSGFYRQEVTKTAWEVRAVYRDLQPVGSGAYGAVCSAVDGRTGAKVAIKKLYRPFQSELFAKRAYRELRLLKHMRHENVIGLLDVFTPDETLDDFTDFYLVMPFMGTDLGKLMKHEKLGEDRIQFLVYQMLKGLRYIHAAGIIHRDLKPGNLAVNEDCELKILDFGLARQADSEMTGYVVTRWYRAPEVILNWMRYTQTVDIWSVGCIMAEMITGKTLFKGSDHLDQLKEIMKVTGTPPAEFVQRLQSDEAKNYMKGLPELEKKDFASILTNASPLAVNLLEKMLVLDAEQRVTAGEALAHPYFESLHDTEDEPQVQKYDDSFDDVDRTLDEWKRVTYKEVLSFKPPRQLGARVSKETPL
Description: Inhibition of Gst-tagged human SAPK3/p38gamma expressed in Escherichia coli at 10 uM

[5] = target: Glycogen synthase kinase-3 beta (Homo sapiens, UniProt P49841); conditions: Sf21, at 10 µM
Description: Inhibition of His-tagged human GSK3b expressed in Sf21 cells at 10 uM

[6] = target: Casein kinase II (Homo sapiens) (UniProt P67870+P68400+P19784); conditions: Sf9, at 10 µM
Description: Inhibition of His-tagged human CK2 expressed in Sf9 cells at 10 uM

[7] = target: Mitogen-activated protein kinase 11 (Homo sapiens) (UniProt Q15759); conditions: at 10 µM
Description: Inhibition of Gst-tagged human SAPK2b/p38--beta-2 expressed in Escherichia coli at 10 uM

[8] = target: Tyrosine-protein kinase Lck (Homo sapiens) (UniProt P06239); conditions: Sf9, at 10 µM
Description: Inhibition of His-tagged human LCK expressed in Sf9 cells at 10 uM

[9] = target: Mitogen-activated protein kinase 14 (Homo sapiens) (UniProt Q16539); conditions: at 10 µM
Sequence of Mitogen-activated protein kinase 14 (Homo sapiens) (Q16539 whole entry): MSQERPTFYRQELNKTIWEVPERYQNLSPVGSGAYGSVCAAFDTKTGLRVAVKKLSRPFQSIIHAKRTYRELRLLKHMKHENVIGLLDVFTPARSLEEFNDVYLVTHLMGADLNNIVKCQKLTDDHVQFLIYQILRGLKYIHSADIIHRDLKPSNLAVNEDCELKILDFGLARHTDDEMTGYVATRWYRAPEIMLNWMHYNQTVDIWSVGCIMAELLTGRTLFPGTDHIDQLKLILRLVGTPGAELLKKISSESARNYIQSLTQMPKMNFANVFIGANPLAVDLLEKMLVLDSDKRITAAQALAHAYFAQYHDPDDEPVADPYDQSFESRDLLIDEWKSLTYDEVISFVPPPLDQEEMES
Description: Inhibition of Gst-tagged human SAPK2a/p38 expressed in Escherichia coli at 10 uM

[10] = target: T3, MAP kinase-activated protein kinase 5 (Homo sapiens) (UniProt Q8IW41); conditions: Sf9, at 10 µM
T3 sequence (whole entry): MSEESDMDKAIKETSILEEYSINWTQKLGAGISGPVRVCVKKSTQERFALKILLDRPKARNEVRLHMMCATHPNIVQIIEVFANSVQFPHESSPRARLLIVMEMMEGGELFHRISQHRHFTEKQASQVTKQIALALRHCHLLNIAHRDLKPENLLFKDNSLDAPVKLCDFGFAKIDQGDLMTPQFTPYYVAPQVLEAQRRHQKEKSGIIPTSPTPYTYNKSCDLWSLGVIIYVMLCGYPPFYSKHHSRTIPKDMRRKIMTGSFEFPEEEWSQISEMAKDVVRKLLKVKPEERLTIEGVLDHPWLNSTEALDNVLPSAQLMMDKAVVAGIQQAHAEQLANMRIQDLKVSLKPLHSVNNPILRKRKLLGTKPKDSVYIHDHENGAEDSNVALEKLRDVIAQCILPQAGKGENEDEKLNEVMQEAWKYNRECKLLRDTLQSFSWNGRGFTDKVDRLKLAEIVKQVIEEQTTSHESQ
Description: Inhibition of His-tagged human PRAK expressed in Sf9 cells at 10 uM

[11] = species: Rattus norvegicus; conditions: at 10 µM
Description: Inhibition of rat liver AMPK at 10 uM

[12] = target: T4, Serine/threonine-protein kinase Sgk1 (Homo sapiens) (UniProt O00141); conditions: Sf9, at 10 µM
T4 sequence (whole entry): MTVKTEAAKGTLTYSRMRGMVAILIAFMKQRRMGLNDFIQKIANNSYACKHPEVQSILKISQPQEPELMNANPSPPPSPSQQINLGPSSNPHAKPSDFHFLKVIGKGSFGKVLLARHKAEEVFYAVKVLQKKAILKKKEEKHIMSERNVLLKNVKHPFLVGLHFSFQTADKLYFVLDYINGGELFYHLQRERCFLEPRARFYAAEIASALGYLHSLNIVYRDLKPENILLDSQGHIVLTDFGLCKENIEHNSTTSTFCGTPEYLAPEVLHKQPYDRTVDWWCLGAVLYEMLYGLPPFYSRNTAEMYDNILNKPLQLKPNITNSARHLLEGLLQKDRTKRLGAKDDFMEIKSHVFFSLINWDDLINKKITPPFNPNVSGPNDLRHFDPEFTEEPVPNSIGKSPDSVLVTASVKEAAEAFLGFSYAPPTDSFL
Description: Inhibition of His-tagged human SGK expressed in Sf9 cells at 10 uM

[13] = target: T5, Serine/threonine-protein kinase Chk1 (Homo sapiens) (UniProt O14757); conditions: at 10 µM
T5 sequence (whole entry): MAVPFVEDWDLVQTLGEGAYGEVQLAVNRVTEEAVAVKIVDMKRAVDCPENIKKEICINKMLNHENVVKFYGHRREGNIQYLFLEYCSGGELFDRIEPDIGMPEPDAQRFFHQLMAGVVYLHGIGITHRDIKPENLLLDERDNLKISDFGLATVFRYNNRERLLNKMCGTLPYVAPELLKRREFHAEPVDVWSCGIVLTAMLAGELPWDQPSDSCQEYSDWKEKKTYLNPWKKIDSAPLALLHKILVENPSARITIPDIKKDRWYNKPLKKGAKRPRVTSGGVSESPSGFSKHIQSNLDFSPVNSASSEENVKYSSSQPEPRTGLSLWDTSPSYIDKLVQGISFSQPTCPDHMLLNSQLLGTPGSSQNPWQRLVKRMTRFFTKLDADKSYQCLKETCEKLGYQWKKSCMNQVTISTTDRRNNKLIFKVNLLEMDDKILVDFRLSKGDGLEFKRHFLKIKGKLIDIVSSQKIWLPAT
Description: Inhibition of His-tagged human CHK1 expressed in Escherichia coli at 10 uM

[14] = species: Oryctolagus cuniculus; conditions: Muscle tissue, at 10 µM
Description: Inhibition of PHK from rabbit skeletal muscle at 10 uM

[15] = target: Mitogen-activated protein kinase 1 (Homo sapiens) (UniProt P28482); conditions: at 10 µM
Sequence of Mitogen-activated protein kinase 1 (Homo sapiens) (P28482 whole entry): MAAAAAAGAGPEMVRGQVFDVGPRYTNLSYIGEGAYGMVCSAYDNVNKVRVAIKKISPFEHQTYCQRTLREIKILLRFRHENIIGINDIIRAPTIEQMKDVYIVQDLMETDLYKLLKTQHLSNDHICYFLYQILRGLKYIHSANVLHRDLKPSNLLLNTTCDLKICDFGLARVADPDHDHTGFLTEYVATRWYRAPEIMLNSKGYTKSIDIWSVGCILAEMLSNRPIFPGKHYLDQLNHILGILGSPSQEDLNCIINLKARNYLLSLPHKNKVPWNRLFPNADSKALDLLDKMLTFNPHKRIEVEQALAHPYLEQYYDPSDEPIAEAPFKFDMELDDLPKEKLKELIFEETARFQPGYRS
Description: Inhibition of Gst-tagged human MAPK2/ERK2 expressed in Escherichia coli at 10 uM

[16] = species: Mus musculus; assay: Inhibition of EGF-induced activation of MKK1 in mouse […] at 2 nM; type: cell-based
[17] = target: Rho-associated protein kinase 2 (Rattus norvegicus) (UniProt Q62868); conditions: Sf9, at 10 µM
Sequence of Rho-associated protein kinase 2 (Rattus norvegicus) (Q62868 whole entry, looked up): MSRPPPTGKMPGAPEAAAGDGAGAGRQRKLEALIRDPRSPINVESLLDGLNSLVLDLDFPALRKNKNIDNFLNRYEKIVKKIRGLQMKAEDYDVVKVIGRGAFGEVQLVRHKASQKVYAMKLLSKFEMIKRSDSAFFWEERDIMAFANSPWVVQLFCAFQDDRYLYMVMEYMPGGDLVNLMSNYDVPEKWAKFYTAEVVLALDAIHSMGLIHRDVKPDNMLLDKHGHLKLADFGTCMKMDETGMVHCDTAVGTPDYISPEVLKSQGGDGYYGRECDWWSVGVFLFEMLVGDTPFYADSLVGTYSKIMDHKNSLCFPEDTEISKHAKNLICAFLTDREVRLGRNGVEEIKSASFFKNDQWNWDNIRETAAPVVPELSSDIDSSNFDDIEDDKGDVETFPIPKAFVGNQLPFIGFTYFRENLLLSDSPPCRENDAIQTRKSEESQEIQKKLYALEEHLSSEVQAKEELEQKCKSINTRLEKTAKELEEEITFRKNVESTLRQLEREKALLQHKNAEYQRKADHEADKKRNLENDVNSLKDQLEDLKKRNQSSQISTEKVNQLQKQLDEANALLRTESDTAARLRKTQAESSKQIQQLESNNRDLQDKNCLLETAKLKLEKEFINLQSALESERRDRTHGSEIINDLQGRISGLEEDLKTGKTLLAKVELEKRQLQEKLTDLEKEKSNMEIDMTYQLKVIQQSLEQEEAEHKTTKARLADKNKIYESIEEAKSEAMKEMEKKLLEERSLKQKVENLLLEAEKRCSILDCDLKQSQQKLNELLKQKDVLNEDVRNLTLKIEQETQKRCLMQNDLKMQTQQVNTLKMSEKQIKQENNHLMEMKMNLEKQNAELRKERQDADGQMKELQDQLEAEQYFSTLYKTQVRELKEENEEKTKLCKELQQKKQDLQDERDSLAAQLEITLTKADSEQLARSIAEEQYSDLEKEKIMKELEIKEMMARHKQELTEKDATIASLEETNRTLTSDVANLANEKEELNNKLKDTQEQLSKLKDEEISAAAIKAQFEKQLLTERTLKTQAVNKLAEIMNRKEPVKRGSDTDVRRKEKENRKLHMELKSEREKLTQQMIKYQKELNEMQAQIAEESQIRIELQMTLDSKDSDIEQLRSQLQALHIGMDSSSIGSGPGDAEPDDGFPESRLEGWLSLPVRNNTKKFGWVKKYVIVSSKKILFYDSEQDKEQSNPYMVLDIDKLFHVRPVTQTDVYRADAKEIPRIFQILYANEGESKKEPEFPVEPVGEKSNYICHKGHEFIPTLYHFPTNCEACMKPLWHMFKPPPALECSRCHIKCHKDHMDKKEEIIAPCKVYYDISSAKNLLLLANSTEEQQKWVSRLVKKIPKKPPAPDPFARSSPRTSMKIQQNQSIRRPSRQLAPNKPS
Description: Inhibition of rat ROCK2 expressed in Sf9 cells at 10 uM

[18] = target: Ribosomal protein S6 kinase alpha-5 (Homo sapiens, UniProt O75582); conditions: Sf9, at 10 µM
Sequence of Ribosomal protein S6 kinase alpha-5 (O75582 whole entry, looked up): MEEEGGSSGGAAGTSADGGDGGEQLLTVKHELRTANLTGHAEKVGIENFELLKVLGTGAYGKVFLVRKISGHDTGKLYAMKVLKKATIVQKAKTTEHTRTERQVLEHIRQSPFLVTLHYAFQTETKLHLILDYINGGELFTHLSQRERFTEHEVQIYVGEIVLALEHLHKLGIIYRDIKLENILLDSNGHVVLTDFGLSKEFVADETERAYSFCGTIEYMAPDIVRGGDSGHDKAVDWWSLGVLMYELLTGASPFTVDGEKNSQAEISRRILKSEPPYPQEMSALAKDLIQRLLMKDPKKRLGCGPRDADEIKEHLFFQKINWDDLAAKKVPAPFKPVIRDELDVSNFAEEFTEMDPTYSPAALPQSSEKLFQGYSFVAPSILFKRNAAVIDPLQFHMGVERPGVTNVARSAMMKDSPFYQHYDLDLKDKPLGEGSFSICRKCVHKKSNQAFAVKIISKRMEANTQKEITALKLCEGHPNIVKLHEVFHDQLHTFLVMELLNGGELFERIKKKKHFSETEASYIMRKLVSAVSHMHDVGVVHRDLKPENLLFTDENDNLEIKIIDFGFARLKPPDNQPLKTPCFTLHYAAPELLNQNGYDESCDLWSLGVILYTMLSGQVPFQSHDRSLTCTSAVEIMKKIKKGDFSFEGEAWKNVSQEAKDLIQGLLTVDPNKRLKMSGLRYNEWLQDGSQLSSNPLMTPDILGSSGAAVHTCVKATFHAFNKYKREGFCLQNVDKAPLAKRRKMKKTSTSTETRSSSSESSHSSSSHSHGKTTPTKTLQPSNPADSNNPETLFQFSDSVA
Description: Inhibition of His-tagged human MSK1 expressed in Sf9 cells at 10 uM

[19] = target: Mitogen-activated protein kinase 8 (Homo sapiens) (UniProt P45983); conditions: at 10 µM
Sequence of Mitogen-activated protein kinase 8 (Homo sapiens) (P45983 whole entry): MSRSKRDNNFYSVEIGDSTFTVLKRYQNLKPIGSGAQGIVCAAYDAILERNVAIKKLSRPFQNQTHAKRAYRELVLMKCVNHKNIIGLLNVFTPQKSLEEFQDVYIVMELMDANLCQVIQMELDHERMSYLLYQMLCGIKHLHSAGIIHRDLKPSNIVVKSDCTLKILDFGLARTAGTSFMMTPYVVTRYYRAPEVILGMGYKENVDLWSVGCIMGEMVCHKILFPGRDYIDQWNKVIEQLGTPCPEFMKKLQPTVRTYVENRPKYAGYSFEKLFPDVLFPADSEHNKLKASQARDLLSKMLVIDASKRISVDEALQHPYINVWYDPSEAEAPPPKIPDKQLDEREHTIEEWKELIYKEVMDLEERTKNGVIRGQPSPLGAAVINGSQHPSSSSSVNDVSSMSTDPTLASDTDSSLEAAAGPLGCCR
Description: Inhibition of Gst-tagged human JNK1a1 expressed in Escherichia coli at 10 uM

[20] = target: MAP kinase-activated protein kinase 2 (Homo sapiens, UniProt P49137); conditions: at 10 µM
Sequence of MAP kinase-activated protein kinase 2 (P49137 whole entry, looked up): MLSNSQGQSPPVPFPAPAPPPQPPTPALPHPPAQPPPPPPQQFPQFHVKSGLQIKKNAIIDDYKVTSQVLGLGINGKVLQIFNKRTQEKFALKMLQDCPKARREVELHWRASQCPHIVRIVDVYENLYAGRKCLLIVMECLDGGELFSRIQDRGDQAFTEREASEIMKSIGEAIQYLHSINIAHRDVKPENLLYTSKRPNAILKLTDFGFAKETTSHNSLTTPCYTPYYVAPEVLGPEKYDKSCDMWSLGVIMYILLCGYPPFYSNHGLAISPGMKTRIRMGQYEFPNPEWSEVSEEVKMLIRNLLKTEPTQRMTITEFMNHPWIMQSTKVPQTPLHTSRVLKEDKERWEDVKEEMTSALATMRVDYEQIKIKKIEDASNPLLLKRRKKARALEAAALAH
Description: Inhibition of Gst-tagged human MAPKAPK2 expressed in Escherichia coli at 10 uM

[21] = target: Protein kinase C alpha type (Homo sapiens, UniProt P17252); conditions: at 10 µM
Description: Inhibition of His-tagged human PKCalpha expressed in Escherichia coli at 10 uM

[22] = Inhibition of PHK from rabbit skeletal muscle; type: tissue-based, Oryctolagus cuniculus, Muscle tissue
[23] = species: Oryctolagus cuniculus; conditions: at 10 µM
Description: Inhibition of rabbit MKK1 expressed in Escherichia coli at 10 uM

[24] = target: Ribosomal protein S6 kinase beta-1 (Homo sapiens, UniProt P23443); conditions: at 10 µM
Description: Inhibition of His-tagged human S6K1 expressed in Escherichia coli at 10 uM

[25] = Inhibition of MAPKAPK1b from rabbit skeletal muscle; type: tissue-based, Oryctolagus cuniculus, Muscle tissue
[26] = target: Serine/threonine-protein kinase N2 (Homo sapiens) (UniProt Q16513); assay: Inhibition of His-tagged human PRK2 expressed in HEK293 cells at 10 uM; type: cell-based
[27] = species: Oryctolagus cuniculus; conditions: Muscle tissue, at 10 µM; remark: listed apart in the source
Description: Inhibition of MAPKAPK1b from rabbit skeletal muscle at 10 uM

SMILES | residual activity [1] [%] | residual activity [2] [%] | residual activity [3] [%] | residual activity [4] [%] | residual activity [5] [%] | residual activity [6] [%] | residual activity [7] [%] | residual activity [9] [%] | residual activity [10] [%] | residual activity [11] [%] | residual activity [12] [%] | residual activity [13] [%] | level, % of control [14] [%] | residual activity [15] [%] | residual activity [17] [%] | residual activity [18] [%] | residual activity [19] [%] | residual activity [20] [%] | residual activity [21] [%] | also measured
O=C(NOCC1CC1)c1ccc(F)c(F)c1Nc1ccc(I)cc1Cl | 105 | 98 | 89 | 100 | 83 | 96 | 119 | 100 | 71 | 89 | 111 | 104 | 117 | 107 | 107 | 118 | 102 | 98 | 99 | residual activity [8]: 99%; inhibition [16]: 50%
C[C@@H](N)[C@H]1CC[C@H](C(=O)Nc2ccncc2)CC1 [Y-27632] | 91 | 95 | 90 | 100 | 92 | 98 | 107 | 94 | 104 | 95 | 109 | 99 | 81 | 94 | 13 | 57 | 98 | 99 | 98 | IC50 [22]: 44 µM; residual activity [23]: 103%; residual activity [24]: 94%; IC50 [25]: 19 µM; inhibition [26]: 6%; level, % of control [27]: 72%
